# Test results published in patent publication US20240382475A1, “Quinazoline Derivative, Or Preparation Method Therefor And Use Thereof” (Zhejiang Hisun Pharmaceutical Co., Ltd., priority 2021, published 2024).
# Read-outs that look alike come from different tables or passages of the source.
# Tests used:
# NCI-H358 cells = test: Inhibition of NCI-H358 cell proliferation under 3D non-anchored conditions (CellTiter-Glo 3D); type: cell-based; settings: Homo sapiens, NCI-H358 cells (KRAS G12C mutation), 120 hours
# Description: The following method was used to determine the effects of the compounds of the present invention on NCI-H358 cell proliferation under three-dimensional (3D) non-anchored conditions. NCI-H358 cells (containing KRAS G12C mutation) were purchased from the Cell Resource Center of Shanghai Institutes for Biological Sciences, Chinese Academy of Sciences, and cultured in RPMI 1640 medium containing 10% fetal bovine serum, 100 U penicillin, 100 μg/mL streptomycin and 1 mM Sodium Pyruvate. The activities of the cells were determined by CellTiter-Glo® 3D Cell Viability Assay Kit (Promega, Art. No. G9683).
# The experimental method was operated according to the steps in the kit instruction, which can be briefly described as follows: the test compounds were first dissolved in DMSO to prepare storage solutions of 10 mM, and then diluted with culture mediums to prepare test samples. The final concentrations of the compounds were 10000 nM to 0.15 nM. Cells in logarithmic phase were inoculated in an ultra-low adsorption 384-well cell culture plate (PerkinElmer, #3830) with 2000 cells per well, and the test compounds were added and cultured for 120 hours. After the culture was completed, 30 μL of CellTiter-Glo 3D detection solution was added to each well, shaken for 30 minutes and then stood for 120 minutes. Then, a Luminescence mode was used to read the luminescence values of each well of the samples on a microplate reader. By comparing with the numerical value of a control group (0.1% DMSO), the percentage inhibition rates of the compounds at each concentration were calculated, and the IC50 values of the compounds inhibiting cell proliferation were obtained by performing nonlinear regression analysis with logarithmic values of the compound concentration-inhibition rate by GraphPad Prism 5 software, which can be seen in Table 4.
# p-ERK1/2 in DLD-1 cells = test: Inhibition of p-ERK1/2 in DLD-1 cells (Cisbio Advanced phospho-ERK1/2 kit); type: cell-based; settings: Homo sapiens; DLD-1 cells (KRAS G13D mutation), hEGF 5 nM stimulation; read-out: IC50 (nM) Inhibition on p-ERK½ in DLD-1 cells
# Excerpt: The following method was used to determine the inhibition activities of the compounds of the present invention on p-ERK1/2 in DLD-1 cells. The Advanced phospho-ERK1/2 (Thr202/tyr2O4) kit (Art. No. 64AERPEH) from Cisbio was used in this method. Please refer to the kit instruction for detailed experimental operations. DLD-1 cells (containing KRAS G13D mutation) were purchased from the Cell Resource Center of Shanghai Institutes for Biological Sciences, Chinese Academy of Sciences.
# The experimental process can be briefly described as follows: DLD-1 cells were cultured in RPMI 1640 complete medium containing 10% fetal bovine serum, 100 U penicillin, 100 μg/mL streptomycin and 1 mM Sodium Pyruvate. DLD-1 cells were plated in a 96-well plate at 30,000 cells per well, after cultured overnight in 5% CO2 incubator at 37° C. with complete culture medium. The test compounds were dissolved in DMSO to prepare storage solutions of 10 mM, and then diluted with RPMI 1640 basic mediums. 90 μL of RPMI 1640 basic mediums containing the test compounds at the corresponding concentration were added to each well. The final concentrations of the test compounds in the reaction system were 10,000 nM to 0.15 nM, and were placed in a cell culture incubator for 3 hours and 40 minutes. Subsequently, 10 μL of hEGF (purchased from Roche, Art. No. 11376454001) prepared with RPMI 1640 basic medium was added to a final concentration of 5 nM, and placed in the incubator for culturing for 20 minutes. The cell supernatant was discarded, and the cells were washed with PBS on ice-bath. Then, 45 μl of 1× cell phospho/total protein lysis buffer (component of Advanced phospho-ERK1/2 kit) was added to each well for lysis. The 96-well plate was placed on ice for 0.5 hours to lyse, and then the lysate was detected according to the instruction of the Advanced phospho-ERK1/2 (Thr202/tyr2O4) kit. Finally, the microplate reader was used in […] mode to measure the fluorescence intensity of each well emitting wavelengths of 620 nm and […] under the excitation wavelength of 304 nm, and the fluorescence intensity ratio 665/620 in each well was calculated. By comparing with the fluorescence intensity ratio of a control group (0.1% DMSO), the percentage inhibition rates of the test compounds at each concentration were calculated, and the IC50 values of the compounds were obtained by performing nonlinear regression analysis with logarithmic values of the compound concentration-inhibition rate by GraphPad Prism 5 software, which can be seen in Table 3.
# [1] = Pharmacokinetic evaluation in beagle dogs; type: in vivo; settings: male, dog, plasma; for AUC(0-t): read-out: Area under curve AUC0-t; for half-life: read-out: Half-life T1/2 (converted)
# Description: Beagle, male, 13 to 14 months old, purchased from Beijing Mas Biotechnology Co., Ltd.
# Intravenous injection group: an appropriate amount of the compound to be tested was weighed, and an appropriate amount of DMA:30% Solutol HS-15:Saline=5:5:90 (v/v/v) was added, vortexed, and a solution with a final concentration of 0.5 mg/mL was prepared.
# Intragastric administration group: an appropriate amount of the compound to be tested was weighed, and an appropriate amount of DMA:30% Solutol HS-15:Saline=5:5:90 (v/v/v) was added, vortexed, and a solution with a final concentration of 1 mg/mL was prepared.
# The beagle dogs were divided into intravenous injection group (3 dogs/group) and intragastric administration group (3 dogs/group) according to the compound to be tested.
# Intravenous injection group: dogs were fasted overnight and then administered by intravenous injection (administration dosage was 0.5 mg/kg, and administration volume was 1 mL/kg), and ate 4 hours after administration. […]
# Intravenous injection group: about 0.5 mL of blood was collected through jugular vein into EDTA-K2 anticoagulant tubes at 0.083 hour, 0.25 hour, 0.5 hour, 1 hour, 2 hours, 4 hours, 8 hours and 24 hours after administration. […] The collected plasma sample was stored at −40˜−20° C. before analysis.
# Intragastric administration group: about 0.5 mL of blood was collected through jugular vein into EDTA-K2 anticoagulant tubes at 0.25 hour, 0.5 hour, 1 hour, 2 hours, 4 hours, 8 hours and 24 hours after administration. […] The collected plasma sample was stored at −40˜−20° C. before analysis.
# LC-MS/MS was used to determine the content of the compound to be tested in dog plasma after intravenous injection and intragastric administration of the compound.
SMILES,IC50 (NCI-H358 cells) [nM],IC50 (p-ERK1/2 in DLD-1 cells) [nM],further results
"COc1cc2nc(C)nc(N[C@H](C)c3cccc(C#N)c3C)c2cc1N1CCOCC1 [Compound 1, (R)-3-(1-((7-methoxy-2-methyl-6-morpholinoquinazolin-4-yl)amino)ethyl)-2-methylbenzonitrile]",78.3,48.7,
"COc1cc2nc(C)nc(N[C@H](C)c3cccc(C#N)c3C)c2cc1N1CCN(C(C)=O)CC1 [Compound 2, (R)-3-(1-((6-(4-acetylpiperazin-1-yl)-7-methoxy-2-methylquinazolin-4-yl)amino)ethyl)-2-methylbenzonitrile]",49.6,65.4,
"COc1cc2nc(C)nc(N[C@H](C)c3cccc(C#N)c3C)c2cc1N1CCC2(CCOCC2)CC1 [Compound 4, (R)-3-(1-((7-methoxy-2-methyl-6-(3-oxa-9-azaspiro[5.5]undecan-9-yl)quinazolin-4-yl)amino)ethyl)-2-methylbenzonitrile]",7,,
"COc1cc2nc(C)nc(N[C@H](C)c3cccc(C#N)c3C)c2cc1N1CCC2(CC1)COC2 [Compound 5, (R)-3-(1-((7-methoxy-2-methyl-6-(2-oxa-7-azaspiro[3.5]nonan-7-yl)quinazolin-4-yl)amino)ethyl)-2-methylbenzonitrile]",10.7,66.1,
"COc1cc2nc(C)nc(N[C@H](C)c3cccc(C#N)c3C)c2cc1N1CCC2(CCN(C)C2=O)CC1 [Compound 7, (R)-3-(1-((7-methoxy-2-methyl-6-(2-methyl-1-oxo-2,8-diazaspiro[4.5]decan-8-yl)quinazolin-4-yl)amino)ethyl)-2-methylbenzonitrile]",,31.1,
"COc1cc2nc(C)nc(N[C@H](C)c3cccc(C#N)c3C)c2cc1N1CCC(C#N)CC1 [Compound 8, (R)-1-(4-((1-(3-cyano-2-methylphenyl)ethyl)amino)-7-methoxy-2-methylquinazolin-6-yl)piperidine-4-carbonitrile]",,38.2,
"COc1cc2nc(C)nc(N[C@H](C)c3cccc(C#N)c3C)c2cc1N1CCC(C)(O)CC1 [Compound 11, (R)-3-(1-((6-(4-hydroxy-4-methylpiperidin-1-yl)-7-methoxy-2-methylquinazolin-4-yl)amino)ethyl)-2-methylbenzonitrile]",71.4,29.7,"bioavailability ([1]; Oral 2 mg/kg vs injection 0.5 mg/kg, read-out: Bioavailability F): 127%; AUC(0-t) ([1]; Oral 2 mg/kg): 3510 ± 1750 ng·h/mL; half-life ([1]; Oral 2 mg/kg): 4.21 ± 0.943 h; Cmax ([1]; Oral 2 mg/kg, read-out: Plasma concentration Cmax): 456 ± 149 ng/mL; AUC(0-t) ([1]; iv, injection 0.5 mg/kg): 693 ± 183 ng·h/mL; half-life ([1]; iv, injection 0.5 mg/kg): 2.81 ± 0.45 h"
"COc1cc2nc(C)nc(N[C@H](C)c3cccc(C#N)c3C)c2cc1N1CCC2(CC1)CN(C(C)=O)C2 [Compound 19, (R)-3-(1-((6-(2-acetyl-2,7-diazaspiro[3.5]nonan-7-yl)-7-methoxy-2-methylquinazolin-4-yl)amino)ethyl)-2-methylbenzonitrile]",21.2,46.3,
